From patent US8378104B2 (OSI Pharmaceuticals, LLC, priority 2010, dated 2013)
Like-named read-outs stand apart in the source and are kept apart here.

Legend:
TAK1-TAB1 fusion protein = target: T1, TAK1-TAB1 fusion protein (Homo sapiens, UniProt O43318); experiment: TAK1 biochemical assay (AlphaScreen, GST-MAP2K7 substrate)
T1 construct: purchased Carna
T1 sequence (O43318 with tags, fused parts or gaps limits assumed): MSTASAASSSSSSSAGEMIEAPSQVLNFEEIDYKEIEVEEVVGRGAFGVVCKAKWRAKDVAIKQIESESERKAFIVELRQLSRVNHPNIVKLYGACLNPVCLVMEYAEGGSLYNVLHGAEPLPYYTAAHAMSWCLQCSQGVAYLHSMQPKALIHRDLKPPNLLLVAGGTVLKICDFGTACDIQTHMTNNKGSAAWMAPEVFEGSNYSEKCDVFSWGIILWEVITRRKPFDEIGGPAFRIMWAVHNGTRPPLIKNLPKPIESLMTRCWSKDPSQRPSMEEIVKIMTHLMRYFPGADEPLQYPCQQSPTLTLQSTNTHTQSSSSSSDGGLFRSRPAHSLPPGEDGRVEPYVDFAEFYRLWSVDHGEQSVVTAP

p-p38 in HCT-116 cells = experiment: Phospho-p38 Meso Scale ELISA assay, TNFα-stimulated HCT-116 cells; assay type: cell-based; settings: Homo sapiens, read-out: mean HCT-116 p-p38 ELISA IC50 (Col. C)
In short: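 Phospho-p38 measured by Meso Scale ELISA on diluted lysates, captured overnight at 4° C. Before lysis, HCT-116 cells were serum-reduced (1% FCS, 2 h), treated with compounds 4 h at 37° C and stimulated 10 min with 10 ng/mL TNFα final.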

pJNK in HCT-116 cells = experiment: Phospho-JNK (Thr183/Tyr185) Meso Scale ELISA assay, TNFα-stimulated HCT-116 cells; assay type: cell-based; settings: Homo sapiens, read-out: mean HCT-116 pJNK ELISA IC50 (Col. B)
In short: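 Meso Scale ELISA read of phospho-JNK (Thr183/Tyr185) in lysed HCT-116 cells. Cells were serum-reduced to 1% FCS for 2 hours, exposed to test drug for 4 hrs at 37° C, then given 10 ng/mL TNFα (final) for 10 minutes before lysis.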

[1] = TAK1-TAB1 fusion protein, GST-MAP2K7 substrate, read-out: mean TAK1 IC50 (Col. A)

## CC(=O)N1CCC(n2cc(-c3cnc(N)c4oc(-c5ccc(O)c(F)c5)cc34)cn2)CC1 [Example 123, 1-(4-{4-[7-amino-2-(3-fluoro-4-hydroxyphenyl)furo[2,3-c]pyridin-4-yl]-1H-pyrazol-1-yl}piperidin-1-yl)ethanone]
TAK1-TAB1 fusion protein; [1]
  IC50: 0.1 to 1 µM
p-p38 in HCT-116 cells
  IC50: 1 to 10 µM
pJNK in HCT-116 cells
  IC50: 1 to 10 µM

## CS(=O)(=O)N1CCC(n2cc(-c3cnc(N)c4oc(-c5cccc6cnccc56)cc34)cn2)CC1 [Example 80, 2-(isoquinolin-5-yl)-4-{1-[1-(methylsulfonyl)piperidin-4-yl]-1H-pyrazol-4-yl}furo[2,3-c]pyridin-7-amine]
TAK1-TAB1 fusion protein; [1]
  IC50: 0.1 to 1 µM
p-p38 in HCT-116 cells
  IC50: 0.1 to 1 µM
pJNK in HCT-116 cells
  IC50: < 0.1 µM

## CC(=O)N1CCC(n2cc(-c3cnc(N)c4oc(-c5ccc6sccc6c5)cc34)cn2)CC1 [Example 106, 1-(4-{4-[7-amino-2-(1-benzothiophen-5-yl)furo[2,3-c]pyridin-4-yl]-1H-pyrazol-1-yl}piperidin-1-yl)ethanone]
TAK1-TAB1 fusion protein; [1]
  IC50: 0.1 to 1 µM
p-p38 in HCT-116 cells
  IC50: 0.1 to 1 µM
pJNK in HCT-116 cells
  IC50: 0.1 to 1 µM

## Cc1nn(CC(C)(C)O)cc1-c1cnc(N)c2oc(-c3csc4cnccc34)cc12 [Example 289, 1-[4-(7-amino-2-thieno[2,3-c]pyridin-3-yl-furo[2,3-c]pyridin-4-yl)-3-methyl-pyrazol-1-yl]-2-methyl-propan-2-ol]
TAK1-TAB1 fusion protein; [1]
  IC50: 1 to 10 µM
p-p38 in HCT-116 cells
  IC50: 1 to 10 µM
pJNK in HCT-116 cells
  IC50: 0.1 to 1 µM

## CC(C)N1CCC(n2cc(-c3cnc(N)c4oc(-c5cccc6cnccc56)cc34)cn2)CC1 [Example 79, 2-(isoquinolin-5-yl)-4-{1-[1-(propan-2-yl)piperidin-4-yl]-1H-pyrazol-4-yl]furo[2,3-c]pyridin-7-amine]
TAK1-TAB1 fusion protein; [1]
  IC50: 0.1 to 1 µM
p-p38 in HCT-116 cells
  IC50: 0.1 to 1 µM
pJNK in HCT-116 cells
  IC50: 0.1 to 1 µM

## CC(=O)N1CCC(n2cc(-c3cnc(N)c4oc(-c5ccc6c(c5)C(=O)NC6)cc34)cn2)CC1 [Example 96, 6-{4-[1-(1-acetylpiperidin-4-yl)-1H-pyrazol-4-yl]-7-aminofuro[2,3-c]pyridin-2-yl}-2,3-dihydro-1H-isoindol-1-one]
TAK1-TAB1 fusion protein; [1]
  IC50: 0.1 to 1 µM
p-p38 in HCT-116 cells
  IC50: > 10 µM
pJNK in HCT-116 cells
  IC50: 1 to 10 µM

## CC(=O)N1CCC(n2cc(-c3cnc(N)c4oc(-c5cccn6ccnc56)cc34)cn2)CC1 [Example 221, 1-(4-{4-[7-amino-2-(imidazo[1,2-a]pyridin-8-yl)furo[2,3-c]pyridin-4-yl]-1H-pyrazol-1-yl}piperidin-1-yl)ethanone bis(trifluoroacetate)]
TAK1-TAB1 fusion protein; [1]
  IC50: 0.1 to 1 µM
p-p38 in HCT-116 cells
  IC50: 0.1 to 1 µM
pJNK in HCT-116 cells
  IC50: 0.1 to 1 µM

## Cn1cc(-c2cnc(N)c3oc(-c4cccc5cnccc45)cc23)cn1 [Example 70, 2-(isoquinolin-5-yl)-4-(1-methyl-1H-pyrazol-4-yl)furo[2,3-c]pyridin-7-amine]
TAK1-TAB1 fusion protein; [1]
  IC50: 1 to 10 µM
p-p38 in HCT-116 cells
  IC50: 0.1 to 1 µM
pJNK in HCT-116 cells
  IC50: 0.1 to 1 µM

## C[C@]1(O)CC[C@@H](n2cc(-c3cnc(N)c4oc(-c5cccc6cnccc56)cc34)cn2)CC1 [Example 76, cis-4-{4-[7-amino-2-(isoquinolin-5-yl)furo[2,3-c]pyridin-4-yl]-1H-pyrazol-1-yl}-1-methylcyclohexanol]
TAK1-TAB1 fusion protein; [1]
  IC50: 0.1 to 1 µM
p-p38 in HCT-116 cells
  IC50: 0.1 to 1 µM
pJNK in HCT-116 cells
  IC50: 0.1 to 1 µM

## CC(=O)N1CCC(n2cc(-c3cnc(N)c4oc(-c5cccc6c5CC(=O)N6)cc34)cn2)CC1 [Example 227, 4-{4-[1-(1-acetylpiperidin-4-yl)-1H-pyrazol-4-yl]-7-aminofuro[2,3-c]pyridin-2-yl}-1,3-dihydro-2H-indol-2-one]
TAK1-TAB1 fusion protein; [1]
  IC50: 0.1 to 1 µM
p-p38 in HCT-116 cells
  IC50: 1 to 10 µM
pJNK in HCT-116 cells
  IC50: 1 to 10 µM

## CC(=O)N1CCC(n2cc(-c3cnc(N)c4oc(-c5c[nH]c6cnccc56)cc34)cn2)CC1 [Example 86, 1-(4-{4-[7-amino-2-(1H-pyrrolo[2,3-c]pyridin-3-yl)furo[2,3-c]pyridin-4-yl]-1H-pyrazol-1-yl}piperidin-1-yl)ethanone]
TAK1-TAB1 fusion protein; [1]
  IC50: < 0.1 µM
p-p38 in HCT-116 cells
  IC50: 1 to 10 µM
pJNK in HCT-116 cells
  IC50: 1 to 10 µM

## CC(=O)N1CCC(n2cc(-c3cnc(N)c4oc(-c5csc6ccccc56)cc34)cn2)CC1 [Example 219, 1-(4-{4-[7-amino-2-(1-benzothiophen-3-yl)furo[2,3-c]pyridin-4-yl]-1H-pyrazol-1-yl}piperidin-1-yl)ethanone]
TAK1-TAB1 fusion protein; [1]
  IC50: 0.1 to 1 µM
p-p38 in HCT-116 cells
  IC50: 0.1 to 1 µM
pJNK in HCT-116 cells
  IC50: 0.1 to 1 µM

## Nc1ncc(-c2cnn([C@H]3CC[C@H](O)CC3)c2)c2cc(-c3cccc4cnccc34)oc12 [Example 65, trans-4-{4-[7-amino-2-(isoquinolin-5-yl)furo[2,3-c]pyridin-4-yl]-1H-pyrazol-1-yl}cyclohexanol]
TAK1-TAB1 fusion protein; [1]
  IC50: 0.1 to 1 µM
p-p38 in HCT-116 cells
  IC50: 0.1 to 1 µM
pJNK in HCT-116 cells
  IC50: < 0.1 µM

## COc1cc(-c2cc3c(-c4cnn(C5CCN(C(C)=O)CC5)c4)cnc(N)c3o2)ccc1O [Example 131, 1-(4-{4-[7-amino-2-(4-hydroxy-3-methoxyphenyl)furo[2,3-c]pyridin-4-yl]-1H-pyrazol-1-yl}piperidin-1-yl)ethanone]
TAK1-TAB1 fusion protein; [1]
  IC50: 0.1 to 1 µM
p-p38 in HCT-116 cells
  IC50: 1 to 10 µM
pJNK in HCT-116 cells
  IC50: 0.1 to 1 µM

## CC(=O)N1CCC(n2cc(-c3cnc(N)c4oc(-c5cccc6ccccc56)cc34)cn2)CC1 [Example 105, 1-(4-{4-[7-amino-2-(naphthalen-1-yl)furo[2,3-c]pyridin-4-yl]-1H-pyrazol-1-yl}piperidin-1-yl)ethanone]
TAK1-TAB1 fusion protein; [1]
  IC50: 0.1 to 1 µM
p-p38 in HCT-116 cells
  IC50: 1 to 10 µM
pJNK in HCT-116 cells
  IC50: 1 to 10 µM

## CC(=O)N1CCC(n2cc(-c3cnc(N)c4oc(-c5csc6cncnc56)cc34)cn2)CC1 [Example 260, 1-(4-{4-[7-amino-2-(thieno[3,2-d]pyrimidin-7-yl)furo[2,3-c]pyridin-4-yl]-1H-pyrazol-1-yl}piperidin-1-yl)ethanone]
TAK1-TAB1 fusion protein; [1]
  IC50: 0.1 to 1 µM
p-p38 in HCT-116 cells
  IC50: 1 to 10 µM
pJNK in HCT-116 cells
  IC50: 1 to 10 µM

## CC(=O)N1CCC(n2cc(-c3cnc(N)c4oc(-c5ccccc5C#N)cc34)cn2)CC1 [Example 171, 2-{4-[1-(1-acetylpiperidin-4-yl)-1H-pyrazol-4-yl]-7-aminofuro[2,3-c]pyridin-2-yl}benzonitrile]
TAK1-TAB1 fusion protein; [1]
  IC50: 0.1 to 1 µM
p-p38 in HCT-116 cells
  IC50: 1 to 10 µM
pJNK in HCT-116 cells
  IC50: 1 to 10 µM

## Nc1ncc(-c2cnn(C3CCN(C(=O)C4CC4)CC3)c2)c2cc(-c3cccc4cnccc34)oc12 [Example 52, (4-{4-[7-amino-2-(isoquinolin-5-yl)furo[2,3-c]pyridin-4-yl]-1H-pyrazol-1-yl}piperidin-1-yl)(cyclopropyl)methanone]
TAK1-TAB1 fusion protein; [1]
  IC50: 0.1 to 1 µM
p-p38 in HCT-116 cells
  IC50: 0.1 to 1 µM
pJNK in HCT-116 cells
  IC50: 0.1 to 1 µM

## Nc1ncc(-c2cnn(C3CCCCC3)c2)c2cc(-c3c[nH]c4cnccc34)oc12 [Example 89, 4-(1-cyclohexyl-1H-pyrazol-4-yl)-2-(1H-pyrrolo[2,3-c]pyridin-3-yl)furo[2,3-c]pyridin-7-amine]
TAK1-TAB1 fusion protein; [1]
  IC50: < 0.1 µM
p-p38 in HCT-116 cells
  IC50: 0.1 to 1 µM
pJNK in HCT-116 cells
  IC50: 0.1 to 1 µM

## CC(=O)N1CCC(n2cc(-c3cnc(N)c4oc(-c5ccc(O)c(Cl)c5)cc34)cn2)CC1 [Example 136, 1-(4-{4-[7-amino-2-(3-chloro-4-hydroxyphenyl)furo[2,3-c]pyridin-4-yl]-1H-pyrazol-1-yl}piperidin-1-yl)ethanone]
TAK1-TAB1 fusion protein; [1]
  IC50: 0.1 to 1 µM
p-p38 in HCT-116 cells
  IC50: 1 to 10 µM
pJNK in HCT-116 cells
  IC50: 0.1 to 1 µM

## CC(=O)N1CCC(n2cc(-c3cnc(N)c4oc(-c5scc6c5OCCO6)cc34)cn2)CC1 [Example 109, 1-(4-{4-[7-amino-2-(2,3-dihydrothieno[3,4-b][1,4]dioxin-5-yl)furo[2,3-c]pyridin-4-yl]-1H-pyrazol-1-yl}piperidin-1-yl)ethanone]
TAK1-TAB1 fusion protein; [1]
  IC50: 0.1 to 1 µM
p-p38 in HCT-116 cells
  IC50: 1 to 10 µM
pJNK in HCT-116 cells
  IC50: 0.1 to 1 µM

## Cc1nn(C)cc1-c1cnc(N)c2oc(-c3csc4cnccc34)cc12 [Example 293, 4-(1,3-dimethyl-1H-pyrazol-4-yl)-2-thieno[2,3-c]pyridin-3-yl-furo[2,3-c]pyridin-7-ylamine]
TAK1-TAB1 fusion protein
  IC50: 1 to 10 µM
p-p38 in HCT-116 cells
  IC50: 1 to 10 µM
pJNK in HCT-116 cells
  IC50: 0.1 to 1 µM

## CCSc1ccccc1-c1cc2c(-c3cnn(C4CCN(C(C)=O)CC4)c3)cnc(N)c2o1 [Example 217]
TAK1-TAB1 fusion protein; [1]
  IC50: 0.1 to 1 µM
p-p38 in HCT-116 cells
  IC50: 0.1 to 1 µM
pJNK in HCT-116 cells
  IC50: 0.1 to 1 µM

## CC(=O)N1CCC(n2cc(-c3cnc(N)c4oc(-c5ccccc5)cc34)cn2)CC1 [Example 149, 1-{4-[4-(7-amino-2-phenylfuro[2,3-c]pyridin-4-yl)-1H-pyrazol-1-yl]piperidin-1-yl}ethanone]
TAK1-TAB1 fusion protein; [1]
  IC50: 1 to 10 µM
p-p38 in HCT-116 cells
  IC50: 1 to 10 µM
pJNK in HCT-116 cells
  IC50: 0.1 to 1 µM

## Nc1ncc(-c2cnn([C@H]3CC[C@H](O)CC3)c2)c2cc(-c3ccc4[nH]ncc4c3)oc12 [Example 402, trans-4-{4-[7-amino-2-(1H-indazol-5-yl)furo[2,3-c]pyridin-4-yl]-1H-pyrazol-1-yl}cyclohexanol]
TAK1-TAB1 fusion protein; [1]
  IC50: 0.1 to 1 µM
p-p38 in HCT-116 cells
  IC50: 1 to 10 µM
pJNK in HCT-116 cells
  IC50: 0.1 to 1 µM

## CSc1ccccc1-c1cc2c(-c3cnn(C4CCN(C(C)=O)CC4)c3)cnc(N)c2o1 [Example 216, 1-[4-(4-{7-amino-2-[2-(methylsulfanyl)phenyl]furo[2,3-c]pyridin-4-yl}-1H-pyrazol-1-yl)piperidin-1-yl]ethanone]
TAK1-TAB1 fusion protein; [1]
  IC50: 0.1 to 1 µM
p-p38 in HCT-116 cells
  IC50: 0.1 to 1 µM
pJNK in HCT-116 cells
  IC50: 0.1 to 1 µM
